In patent US6323340A, “Phthalocyanine compound, method for production thereof, and near infrared absorption dye using the compound” (Nippon Shobukai Co., Ltd., priority 1999, dated 2001):

Legend:
[1] = maximum absorption wavelength and absorptivity coefficient in toluene (spectrophotometer); type: physicochemical; details: for Absorptivity Coefficient ε: at maximum absorption wavelength
Experimental: By the use of a spectrophotometer (Shimadzu Seisakusho Ltd., UV-3100), the phthalocyanine compound obtained in this example [VOPc(2,5-Cl2 PhO)8 (2,6-Br2 -4-CH3 PhO)4 {Ph(CH3)CHNH}3 F] was tested for the maximum absorption wavelength and the absorptivity coefficient in toluene.

[2] = transmittance to the visible ray of chloroform solution (JIS R3106); type: physicochemical; details: 1 cm quartz cell, lowest transmittance at 750 to 1050 nm set to 5 to 6%
Experimental: In a quartz cell of 1 cm, this phthalocyanine compound was diluted with chloroform until the lowest value of the transmittance at 750 to 1050 nm reached a level in the range of 5 to 6%.

[3] = solubility in toluene and methylethyl ketone at room temperature; details: 25° C.
Experimental: At a room temperature (25° C.), the phthalocyanine compound was gradually dissolved in each the solutions of toluene and methylethyl ketone (MEK) (each 10 ml in volume). The solutions in the process of dissolving the compound were visually examined to find the finally dissolved amounts of the compound, i.e. the concentrations (solubility) of the phthalocyanine compound as a solute in the saturated solutions.

Substance	Maximum Absorption Wavelength [1] [nm]	Absorptivity Coefficient ε [1]	Transmittance to Visible Ray [2] [%]	Solubility MEK ([3]; methylethyl ketone)	Solubility Toluene ([3]; toluene)
VOPc(PhNH)8 (PhS)8 [Control 1, reference compound]	950	–	50	–	–
VOPc(2,5-Cl2 PhO)8 (2,6-(CH3)2 PhO)4 {Ph(CH3)CHNH}3 F [Example 3]	834	84000	82	–	–
octafluoro-octakisanilino oxyvanadium phthalocyanine [Control 2, reference compound]	860	–	48	–	–
VOPc(2,5-Cl2 PhO)8 (2,6-Br2 -4-CH3 PhO)4 {Ph(CH3)CHNH}3 F [Example 1]	835	76000	79	–	–
VOPc(2,6-Cl2 PhO)8 (2,6-(CH3)2 PhO)4 {Ph(CH3)CHNH}3 F [Example 4]	835	92000	83	–	–
VOPc(2,5-Cl2 PhO)8 (2,6-Br2 -4-CH3 PhO)4 {PhCH2 NH}3 F [Example 2]	840	68000	81	–	–

Second part, led by results:

Maximum Absorption Wavelength [1] [nm]	Absorptivity Coefficient ε [1]	Transmittance to Visible Ray [2] [%]	Substance	Solubility MEK ([3]; methylethyl ketone)	Solubility Toluene ([3]; toluene)
880	128200	83	VOPc(2,5-Cl2 PhO)8 (2,6-(CH3)2 Pho)4 (PhCH2 NH)4 [Example 7]	–	–
834	83000	81	VOPc(4-CNPhO)8 (2,6-(CH3)2 PhO)4 {Ph(CH3)CHNH}3 F [Example 6]	.circleincircle. (a solubility of not less than 5% by weight)	.circleincircle. (a solubility of not less than 5% by weight)
920	130800	79	VOPc(PhS)8 (2,6-(CH3)2 PhO)4 (PhCH2 NH)4 [Example 9]	–	–
810	154000	85	CuPc(2,5-Cl2 PhO)8 (2,6-(CH3)2 PhO)4 (PhCH2 NH)4 [Example 8]	–	–
836	72000	80	VOPc(4-CNPhO)8 (2,6-Br2 -4-CH3 PhO)4 {Ph(CH3)CHNH}3 F [Example 5]	–	–
